Counter-ions that a name gives are not always drawn.
These molecules were tested on ISG reporter activity in THP1-Dual cell (assay: ISG reporter assay). Settings: Homo sapiens, compounds incubated with cells for 24 hours, QUANTI-Blue, absorbance at 655 nm.
Type: cell-based
Description: [Worded in the source for another cell line; this cell line is reported under the same test.] THP1-Blue cells (cat. no. thp-isg) were purchased from InvivoGen (Sandiago, USA). Penicillin—streptomycin (cat. no. L0022-100), Fetal Bovine Serum (FBS) (cat. no. S1480-500) and Roswell Park Memorial Institute (RPMI) 1640 media (cat. L0498-500) were purchased from biowest (Nuaille, France). Zeocin (cat. no. ant-zn-OS) and Normocin (cat. no. ant-nr-1) were purchased from InvivoGen (Sandiago, USA). QUANTI-Blue™ (cat. no. rep-qbs) was purchased from InvivoGen. THP1-Blue cells were cultured in RPMI 1640 medium with 10% heat-inactivated FBS, 100 μg/ml Normocin, 100 μg/ml Zeocin and 100 U/ml-100 μg/ml penicillin-streptomycin. The cells were incubated at 37° C. in a humidified atmosphere of 5% CO2.
THP1-Blue cells were seeded at 5×10^4 cells/well (90 μl/well). 10 μl of compounds were added to the cells and incubated for 24 hours. 20 μl of cell culture supernatant was dispensed new 96-well plate (cat. no. 30096) with 180 μl of QUANTI-Blue™ solution and incubated for 15 minutes at 37° C. The absorbance was measured by Varioskan Lux (Thermofisher Scientific, USA) at 655 nm.

First: CCn1nc(C)cc1C(=O)Nc1nc2cc(C(N)=O)cc(OC)c2n1C/C=C/Cn1c(NC(=O)c2cc(C)nn2CC)nc2cc(C(N)=O)cc(OCC#CC3CCN(C(=O)N4CCNCC4)CC3)c21 [Example 17, (E)-1-(4-(5-carbamoyl-2-(1-ethyl-3-methyl-1H-pyrazole-5-carboxamido)-7-((3-(1-(piperazine-1-carbonyl)piperidin-4-yl)prop-2-yn-1-yl)oxy)-1H-benzo[d]imidazol-1-yl)but-2-en-1-yl)-2-(1-ethyl-3-methyl-1H-pyrazole-5-carboxamido)-7-methoxy-1H-benzo[d]imidazole-5-carboxamide hydrochloride]
Second: CCn1nc(C)cc1C(=O)Nc1nc2cc(C(N)=O)cc(OC)c2n1C/C=C/Cn1c(NC(=O)c2cc(C)nn2CC)nc2cc(C(N)=O)cc(OCC#CC3CCNCC3)c21 [Example 4, (E)-1-(4-(5-carbamoyl-2-(1-ethyl-3-methyl-1H-pyrazole-5-carboxamido)-7-((3-(piperidin-4-yl)prop-2-yn-1-yl)oxy)-1H-benzo[d]imidazol-1-yl)but-2-en-1-yl)-2-(1-ethyl-3-methyl-1H-pyrazole-5-carboxamido)-7-methoxy-1H-benzo[d]imidazole-5-carboxamide hydrochloride]
The EC50 of the first is lower: under 50 nM for the first, 50 to 500 nM for the second.

`CCn1nc(C)cc1C(=O)Nc1nc2cc(C(N)=O)cc(OC)c2n1C/C=C/Cn1c(NC(=O)c2cc(C)nn2CC)nc2cc(C(N)=O)cc(OCC#CC3CCN(S(C)(=O)=O)CC3)c21` [Example 19, (E)-1-(4-(5-carbamoyl-2-(1-ethyl-3-methyl-1H-pyrazole-5-carboxamido)-7-((3-(1-(methylsulfonyl)piperidin-4-yl)prop-2-yn-1-yl)oxy)-1H-benzo[d]imidazol-1-yl)but-2-en-1-yl)-2-(1-ethyl-3-methyl-1H-pyrazole-5-carboxamido)-7-methoxy-1H-benzo[d]imidazole-5-carboxamide] and `CCn1nc(C)cc1C(=O)Nc1nc2cc(C(N)=O)cc(OC)c2n1C/C=C/Cn1c(NC(=O)c2cc(C)nn2CC)nc2cc(C(N)=O)cc(OCC#CC3CCN(C(=O)C(C)(C)C)CC3)c21` [Example 11, (E)-1-(4-(5-carbamoyl-2-(1-ethyl-3-methyl-1H-pyrazole-5-carboxamido)-7-((3-(1-pivaloylpiperidin-4-yl)prop-2-yn-1-yl)oxy)-1H-benzo[d]imidazol-1-yl)but-2-en-1-yl)-2-(1-ethyl-3-methyl-1H-pyrazole-5-carboxamido)-7-methoxy-1H-benzo[d]imidazole-5-carboxamide] cannot be ordered by EC50: under 50 nM for the first, under 50 nM for the second.

`CCn1nc(C)cc1C(=O)Nc1nc2cc(C(N)=O)cc(OC)c2n1C/C=C/Cn1c(NC(=O)c2cc(C)nn2CC)nc2cc(C(N)=O)cc(OCC#CC3CCCN(C(=O)OC(C)(C)C)C3)c21` (centres unmarked) [Example 32, tert-butyl (E)-3-(3-((5-carbamoyl-1-(4-(5-carbamoyl-2-(1-ethyl-3-methyl-1H-pyrazole-5-carboxamido)-7-methoxy-1H-benzo[d]imidazol-1-yl)but-2-en-1-yl)-2-(1-ethyl-3-methyl-1H-pyrazole-5-carboxamido)-1H-benzo[d]imidazol-7-yl)oxy)prop-1-yn-1-yl)piperidine-1-carboxylate] and `CCn1nc(C)cc1C(=O)Nc1nc2cc(C(N)=O)cc(OC)c2n1C/C=C/Cn1c(NC(=O)c2cc(C)nn2CC)nc2cc(C(N)=O)cc(OCC#CC3CN(C(=O)OC(C)(C)C)C3)c21` [Example 30, tert-butyl (E)-3-(3-((5-carbamoyl-1-(4-(5-carbamoyl-2-(1-ethyl-3-methyl-1H-pyrazole-5-carboxamido)-7-methoxy-1H-benzo[d]imidazol-1-yl)but-2-en-1-yl)-2-(1-ethyl-3-methyl-1H-pyrazole-5-carboxamido)-1H-benzo[d]imidazol-7-yl)oxy)prop-1-yn-1-yl)azetidine-1-carboxylate] cannot be ordered by EC50: under 50 nM for the first, under 50 nM for the second.

`CCn1nc(C)cc1C(=O)Nc1nc2cc(C(N)=O)cc(OC)c2n1C/C=C/Cn1c(NC(=O)c2cc(C)nn2CC)nc2cc(C(N)=O)cc(OCC#CCC3CCN(C(=O)C4CCN(C(=O)OC(C)(C)C)CC4)CC3)c21` [Example 46, tert-butyl (E)-4-(4-(4-((5-carbamoyl-1-(4-(5-carbamoyl-2-(1-ethyl-3-methyl-1H-pyrazole-5-carboxamido)-7-methoxy-1H-benzo[d]imidazol-1-yl)but-2-en-1-yl)-2-(1-ethyl-3-methyl-1H-pyrazole-5-carboxamido)-1H-benzo[d]imidazol-7-yl)oxy)but-2-yn-1-yl)piperidine-1-carbonyl)piperidine-1-carboxylate] and `CCn1nc(C)cc1C(=O)Nc1nc2cc(C(N)=O)cc(OC)c2n1C/C=C/Cn1c(NC(=O)c2cc(C)nn2CC)nc2cc(C(N)=O)cc(OCC#CCC3CCN(S(=O)(=O)N4CCN(C(=O)OC(C)(C)C)CC4)CC3)c21` [Example 49, tert-butyl (E)-4-((4-(4-((5-carbamoyl-1-(4-(5-carbamoyl-2-(1-ethyl-3-methyl-1H-pyrazole-5-carboxamido)-7-methoxy-1H-benzo[d]imidazol-1-yl)but-2-en-1-yl)-2-(1-ethyl-3-methyl-1H-pyrazole-5-carboxamido)-1H-benzo[d]imidazol-7-yl)oxy)but-2-yn-1-yl)piperidin-1-yl)sulfonyl)piperazine-1-carboxylate] cannot be ordered by EC50: under 50 nM for the first, under 50 nM for the second.

First: CCn1nc(C)cc1C(=O)Nc1nc2cc(C(N)=O)cc(OC)c2n1C/C=C/Cn1c(NC(=O)c2cc(C)nn2CC)nc2cc(C(N)=O)cc(OCC#CC3CCN(S(=O)(=O)N4CCN(C(=O)OC(C)(C)C)CC4)CC3)c21 [Example 28, tert-butyl (E)-4-((4-(3-((5-carbamoyl-1-(4-(5-carbamoyl-2-(1-ethyl-3-methyl-1H-pyrazole-5-carboxamido)-7-methoxy-1H-benzo[d]imidazol-1-yl)but-2-en-1-yl)-2-(1-ethyl-3-methyl-1H-pyrazole-5-carboxamido)-1H-benzo[d]imidazol-7-yl)oxy)prop-1-yn-1-yl)piperidin-1-yl)sulfonyl)piperazine-1-carboxylate]
Second: CCn1nc(C)cc1C(=O)Nc1nc2cc(C(=O)NOC)cc(OC)c2n1C/C=C/Cn1c(NC(=O)c2cc(C)nn2CC)nc2cc(C(N)=O)cc(OCC#CC3CCN(C(=O)OC(C)(C)C)CC3)c21 [Example 2, tert-butyl (E)-4-(3-((5-carbamoyl-2-(1-ethyl-3-methyl-1H-pyrazole-5-carboxamido)-1-(4-(2-(1-ethyl-3-methyl-1H-pyrazole-5-carboxamido)-7-methoxy-5-(methoxycarbamoyl)-1H-benzo[d]imidazol-1-yl)but-2-en-1-yl)-1H-benzo[d]imidazol-7-yl)oxy)prop-1-yn-1-yl)piperidine-1-carboxylate]
The EC50 of the first is lower: under 50 nM for the first, over 500 nM for the second.

First: CCn1nc(C)cc1C(=O)Nc1nc2cc(C(N)=O)cc(OC)c2n1C/C=C/Cn1c(NC(=O)c2cc(C)nn2CC)nc2cc(C(N)=O)cc(OCC#CCC3CCNCC3)c21 [Example 43, (E)-1-(4-(5-carbamoyl-2-(1-ethyl-3-methyl-1H-pyrazole-5-carboxamido)-7-((4-(piperidin-4-yl)but-2-yn-1-yl)oxy)-1H-benzo[d]imidazol-1-yl)but-2-en-1-yl)-2-(1-ethyl-3-methyl-1H-pyrazole-5-carboxamido)-7-methoxy-1H-benzo[d]imidazole-5-carboxamide hydrochloride]
Second: CCn1nc(C)cc1C(=O)Nc1nc2cc(C(N)=O)cc(OC)c2n1C/C=C/Cn1c(NC(=O)c2cc(C)nn2CC)nc2cc(C(N)=O)cc(OCC#CCC3CCN(C(=O)OC(C)(C)C)C3)c21 (centres unmarked) [Example 51, tert-butyl (E)-3-(4-((5-carbamoyl-1-(4-(5-carbamoyl-2-(1-ethyl-3-methyl-1H-pyrazole-5-carboxamido)-7-methoxy-1H-benzo[d]imidazol-1-yl)but-2-en-1-yl)-2-(1-ethyl-3-methyl-1H-pyrazole-5-carboxamido)-1H-benzo[d]imidazol-7-yl)oxy)but-2-yn-1-yl)pyrrolidine-1-carboxylate]
The EC50 of the first is higher: 50 to 500 nM for the first, under 50 nM for the second. The second is the more potent here.

Compared with `CCn1nc(C)cc1C(=O)Nc1nc2cc(C(N)=O)cc(OC)c2n1C/C=C/Cn1c(NC(=O)c2cc(C)nn2CC)nc2cc(C(N)=O)cc(OCC#CC3CCN(C(=O)OCCO)CC3)c21` [Example 10, 2-hydroxyethyl (E)-4-(3-((5-carbamoyl-1-(4-(5-carbamoyl-2-(1-ethyl-3-methyl-1H-pyrazole-5-carboxamido)-7-methoxy-1H-benzo[d]imidazol-1-yl)but-2-en-1-yl)-2-(1-ethyl-3-methyl-1H-pyrazole-5-carboxamido)-1H-benzo[d]imidazol-7-yl)oxy)prop-1-yn-1-yl)piperidine-1-carboxylate], `CCn1nc(C)cc1C(=O)Nc1nc2cc(C(=O)NOC)cc(OC)c2n1C/C=C/Cn1c(NC(=O)c2cc(C)nn2CC)nc2cc(C(N)=O)cc(OCC#CC(C)(C)O)c21` [Example 33, (E)-1-(4-(5-carbamoyl-2-(1-ethyl-3-methyl-1H-pyrazole-5-carboxamido)-7-((4-hydroxy-4-methylpent-2-yn-1-yl)oxy)-1H-benzo[d]imidazol-1-yl)but-2-en-1-yl)-2-(1-ethyl-3-methyl-1H-pyrazole-5-carboxamido)-N,7-dimethoxy-1H-benzo[d]imidazole-5-carboxamide] is higher in EC50: under 50 nM for the first, over 500 nM for the second.

Source: patent US20230219931A1, “FUSED HETEROARYL HYDROXAMATES AS STING AGONISTS” (BiSiChem Co., Ltd., priority 2022, published 2023)
